Tested on: peripheral blood mononuclear cells (PBMC)
Assay: qPCR (TaqMan) measurement of mRNA expression in PBMC treated with compound A
Assay type: cell-based, human
Details: 30 nM; untreated cells = 1; corrected by 18S rRNA

SMILES: CCC(O)C(C)C1OC1CC(C)(O)/C=C/C=C(\C)C1OC(=O)CC(O)CCC(C)(O)C(OC(=O)N2CCN(C3CCCCCC3)CC2)/C=C/C1C (stereo not shown) [E7107, (8E,12E,14E)-7-((4-Cycloheptylpiperazin-1-yl)carbonyl)oxy-3,6,16,21-tetrahydroxy-6,10,12,16,20-pentamethyl-18,19-epoxytricosa-8,12,14-trien-11-olide]
- ZCCHC8 mRNA expression level (qPCR): 0.13
